In US8101750B2, “Process for the manufacturing of the compound 2-hydroxy-3-[5-(morpholin-4-ylmethyl)pyridin-2-yl]1H-indole-5-carbonitrile 701” (AstraZeneca AB, priority 2007, dated 2012):

melting point: 51 to 52 °C
SMILES: Cc1ccc(CN2CCOCC2)cn1
